Key:
[1] = UV-Vis and photoluminescence spectroscopy (optical properties, AIE characteristics); assay type: physicochemical; settings: for λabs: Absorption maximum in DMSO (TFPy and TPE-TFPy) and H2O (TFVP) solution, 10 μM; for λem (Soln.): Emission maximum in DMSO (TFPy and TPE-TFPy) and H2O (TFVP) solution at 10 μM; for ΦF (Aggr.) / ΦF (Soln.) / ΦF (Solid.): Fluorescence quantum yield; for ΦF (Aggr.): aggregation state in 5% DMSO + 95% Toluene or 5% H2O + 95% THF (TFVP); for ΦF (Soln.): calibrated integrating sphere, DMSO (TFPy, TPE-TFPy) or H2O (TFVP) solution; for ΦF (Solid.) / stokes shifts / λem (Solid.): solid state; for λem (Aggr.): aggregation state in 5% DMSO + 95% Toluene (TFPy and TPE-TFPy) or 5% H2O + 95% THF (TFVP); for Iaggr,max/Isoln: emission intensity in 5% DMSO + 95% Toluene (TFPy, TPE-TFPy) or 5% H2O + 95% THF (TFVP) relative to solution; for ε: solution
Description: All the chemicals were purchased from Meryer, J&K, or Sigma as received without further purification. Superdry (99.9%) DCM and methanol with molecular sieves were purchased from J&K Scientific. Toluene was distilled from sodium and benzophenone under nitrogen prior to use. Phosphate buffered saline (PBS) was purchased from Thermo Fisher Scientific. ABDA, Ce6 and Rose Bengal were purchased from Sigma-Aldrich and used as received. Cell culture medium and fetal bovine serum (FBS) were purchased from GIBCO (Gran Island, NY, USA). Mitotracker Green, CellMask Green, and LysoTracker Green were purchased from ThermoFisherScientific. 1H NMR (400 MHz), 13C NMR (100 MHz) spectra were recorded on a Bruker ARX 400 Spectrometer with CDCl3 or d6-DMSO as deuterated solvent. High resolution mass spectra (HRMS) were performed on a Finnigan MAT TAQ 7000 mass spectrometer system operating in matrix-assisted laser desorption/ionization time of flight mass spectrometry (MALDI-TOF) mode. UV-Vis absorption and fluorescence spectra were recorded with Milton Roy Spectronic 3000 array spectrophotometer. Fluorescence images of AIEgens in solution and aggregation state were collected on an Olympus BX 41 fluorescence microscope. Cellular fluorescence images were taken using a Zeiss laser scanning confocal microscope (LSM7 DUO) and analyzed using ZEN 2009 software (Carl Zeiss). Theoretical study was carried out on 6-311G* basis set in Gaussian09 using density functional theory (DFT) approximated by ωB97X-D.
The photophysical properties of TFPy, TFVP and TPE-TFPy were characterized by UV-Vis and photoluminescence spectroscopies at the concentration of 10 μM as shown in FIG. 2 and summarized in Table 1. […] Due to different solubility behavior, the AIE characteristics of TFPy and TPE-TFPy were investigated in DMSO/toluene mixture with different toluene fractions, whereas TFVP was measured in H2O/THF mixture (FIGS. 2C and 2D, FIG. 8). Taking TFVP as an example, TFVP was barely emissive when fully dissolved in water. Upon increasing THF fraction, fluorescence emission intensity got boosted accordingly with a 218-time increment when THF fraction reached 95%. […] In addition, upon the increase of THF or toluene as poor solvent, the emission wavelengths of three AIEgens were blue-shifted owing to the decrease of solvent polarity, manifesting TICT attributes, which is again ascribed to their D-A feature.

[2] = ROS generation measurement with ABDA indicator under white light; settings: 1 μM sample, 10 μM ABDA, DMSO/water 1/100, white light 4.2 mW·cm^−2, up to 6 min; compared with Ce6 and Rose Bengal
Description: 9,10-Anthracenediyl-bis(methylene)dimalonic acid (ABDA) was employed to detect ROS generation of TFPy, TFVP, TPE-TFPy, and two commercial standard photosensitizer, Rose Bengal, and Ce6 upon light irradiation. The absorbance of each sample (1 μM) was firstly set as blank. Then, 10 μM of ABDA was mixed to each sample (DMSO/water (v:v)=1/100) in a dark room, and the absorbance of sample was measured at once. The sample mixture was then irradiated under white light (4.2 mW/cm^−2) at intervals of 1 min until 6 min. The absorption of ABDA at 378 nm was recorded at various irradiation times to obtain the decay rate of photosensitizing process. The absorbance change of ABDA alone in 6 min light irradiation time was also measured as control.
Preliminary study was conducted by evaluating capability of ROS generation of three AIEgens. 9,10-Anthracenediyl-bis-(methylene)-dimalonic acid (ABDA) whose absorption will decrease once oxidized by ROS was utilized as an indicator. […] Ce6 and Rose Bangel, two well-known commercially available standard photosensitizers, were engaged as comparison.

[3] = test system: HeLa cells; assay: HeLa cell imaging / co-localization with commercial organelle probes (CLSM); assay type: cell-based; settings: for subcellular organelle visualized after incubation: CLSM, excitation 488 nm; for Pearson's coefficient (co-localization efficiency): co-staining with MitoTracker Green (TFPy), CellMask Green (TFVP), LysoTracker Green (TPE-TFPy)
Description: Hela cells were seeded and cultured at 37° C. in a 35 mm glass-bottomed dish. After incubation with TFPy (1 μM), TFVP (5 μM), or TPE-TFPy (2 μM), the cells were washed with PBS three times and subjected to imaging analysis using a Zeiss Laser Scanning Confocal Microscope. All of three AIEgens can be excited with 488 nm filter and the emission filter was 570-740 nm. For co-staining assay, the TFPy, TFVP, and TPE-TFPy loaded Hela cells were subjected to incubation with MitoTracker Green, CellMask Green, and LysoTracker Green, respectively. Hoechst 33258 (5 μM) was also utilized to stain nuclear DNA to assist visualizing. Afterwards, the cells were washed with PBS and then observed with CLSM. The cells were imaged using appropriate excitation and emission filters for each dye. The co-localization efficiency was analyzed with Olympus FV10-ASW software, in which the calculated Pearson's coefficient was 0.90 for TFPy, 0.91 for TFVP, and 0.90 for TPE-TFPy. A stock solution of three AIEgens comprising of 1 μM TFPy, 10 μM TFVP, and 1 μM TPE-TFPy was utilized to incubate with Hela cells, followed by imaging analysis excited with 488 nm filter.
In vitro cellular imaging was carried out to evaluate their subcellular organelle targeting property by confocal laser scanning microscopy (CLSM) using HeLa cell as model cell line. Thanks to the analogous maximum absorption of three AIEgens, fluorescence images can be acquired simultaneously using the same excitation at 488 nm. […] Besides, when HeLa cells were cultured with these three AIEgens simultaneously, all of mitochondria, cell membrane and lysosome were highly emissive (FIG. 3D). It was inferred that the mitochondria-staining behavior of TFPy could be attributed to its high efficiency of electrophoretic transmembrane migration, as well as appropriate binding ability between positively charged pyridinium moiety and the negatively charged interior of the transmembrane potential of mitochondria. The low permeability coefficients resulted from the quite high free energy barrier of TFVP at membrane center could lead to its specific accumulation. In the case of TPE-TFPy, it tends to form nano-sized aggregates in culture media due to the high hydrophobicity, and the in-situ generated aggregates can internalize into lysosome of HeLa cells through endocytosis and specifically light up lysosome upon photoexcitation.

[4] = test system: 4T1 cells; assay: 4T1 cell imaging / co-localization with commercial organelle probes; assay type: cell-based; settings: for organelle towards which strong affinity is exhibited: 4T1 cell line; for Pearson's coefficient (co-localization): 4T1 cells, co-staining with commercial probes
Description: Similar co-staining procedure for Hela cell was applied on 4T1 cell. The calculated Pearson's coefficient was 0.90 for TFPy, 0.91 for TFVP, and 0.90 for TPE-TFPy.
Motivated by the excellent targetability and specificity of three diverse organelle-targeting AIEgens, photostability was also carefully investigated as it is an essential parameter to evaluate a fluorescence imaging agent. Photostability assessment was carried out by continuous irradiation and sequential scanning with confocal microscope. […] With HeLa cell imaging and photostability data in hand, additional cellular uptake experiment using 4T1 cell line was performed as preliminary study for in vivo experiment.

[5] = test system: HeLa cell; assay: MTT cytotoxicity / PDT assay, HeLa cell line; assay type: cell-based; settings: 5 μM, white light 20 min (20 mW/cm^2)
Description: 3-(4,5-Dimethylthiazol-2-yl)-2,5-diphenyltetrazolium bromide (MTT) assay was utilized to quantitatively measure the cytotoxicity of TFPy, TFVP, TPE-TFPy, and three in one group based on both Hela cell line and 4T1 cell line. The three in one group was consist of one third concentration of TFPy, TFVP, and TPE-TFPY. Both cancer cell lines were seeded in DMEM media in a 96-well round-bottom microplate with a density of 1×10^4 cells per well. The AIEgens (TFPy, TFVP, TPE-TFPy, and three in one) were added at different concentrations of 0, 0.25, 0.5, 1, 2.5, and 5 μM after replacing the medium, and was incubated with different cell lines respectively for 20 min, followed by irradiation with white light for 20 min (20 mW/cm^2); and another array of plates with cells were kept in the dark as control. After 24 h incubation, 10 uL MTT (5 mg/mL in PBS) was added into each well. 4 hours later, DMSO was added into wells to dissolve the precipitated formazan. Finally, the absorption of each well at 595 nm was recorded via a plate reader (Perkin-Elmer Victor3™). Each trial was performed with 6 wells in parallel.
Cytotoxicity of photosensitizer is a non-negligible factor to take into consideration. […] Consequently, quantitative evaluation of PDT effect was applied on both HeLa Cell and 4T1 cell line through standard methylthiazolyldiphenyltetrazolium bromide (MTT) assay. Each AIEgen and an experimental group named “three in one” were evaluated. The “three in one” group was comprised of one third concentration of each AIEgen (⅓ TFPy, ⅓ TFVP, and ⅓ TPE-TFPy) to assure the overall concentration as same as other experimental groups. […] However, upon irradiation with light for 20 min, HeLa cell suffered severe viability loss with only 10% remained when the “three in one” group was at a concentration of 2.5 μM (FIG. 5C).

Structure (SMILES): C[n+]1ccc(C=Cc2ccc(-c3ccc(N(c4ccccc4)c4ccccc4)cc3)o2)cc1.F[P-](F)(F)(F)(F)F [TFPy]
- λabs [1]: 485 nm
- λem (Soln.) [1]: 686 nm
- ΦF (Aggr.) [1]: 10%
- ΦF (Soln.) [1]: 0.4%
- ΦF (Solid.) [1]: 0.5%
- λem (Aggr.) [1]: 660 nm
- Iaggr,max/Isoln [1]: 12.6
- stokes shifts [1]: ca. 200 nm
- λem (Solid.) [1]: 672 nm
- ε [1]: 27000 M⁻¹ cm⁻¹
- ROS generation efficacy (decrease of ABDA absorption at 378 nm) [2]: better than Ce6, but not as efficient as Rose B angel
- subcellular organelle visualized after incubation [3]: mitochondria
- Pearson's coefficient (co-localization efficiency) [3]: 0.90
- organelle towards which strong affinity is exhibited [4]: mitochondria
- Pearson's coefficient (co-localization) [4]: 0.90
- cell viability upon light irradiation [5]: 58%

Structure (SMILES): C[N+](C)(C)CCC[n+]1ccc(C=Cc2ccc(-c3ccc(N(c4ccccc4)c4ccccc4)cc3)o2)cc1.[Br-].[Br-] [TFVP]
- λabs [1]: 492 nm
- λem (Soln.) [1]: 675 nm
- ΦF (Aggr.) [1]: 5%
- ΦF (Soln.) [1]: 0.4%
- ΦF (Solid.) [1]: 0.6%
- λem (Aggr.) [1]: 672 nm
- Iaggr,max/Isoln [1]: 218
- stokes shifts [1]: ca. 200 nm
- λem (Solid.) [1]: 690 nm
- ε [1]: 28000 M⁻¹ cm⁻¹
- ROS generation efficacy (decrease of ABDA absorption at 378 nm) [2]: better than Ce6, but not as efficient as Rose B angel
- subcellular organelle visualized after incubation [3]: cell membrane
- Pearson's coefficient (co-localization efficiency) [3]: 0.91
- organelle towards which strong affinity is exhibited [4]: cellular membrane
- Pearson's coefficient (co-localization) [4]: 0.91
- cell viability upon light irradiation [5]: 53%

Structure (SMILES): C[n+]1ccc(C=Cc2ccc(-c3ccc(N(c4ccccc4)c4ccc(C(=C(c5ccccc5)c5ccccc5)c5ccccc5)cc4)cc3)o2)cc1.F[P-](F)(F)(F)(F)F [TPE-TFPy]
- λabs [1]: 490 nm
- λem (Soln.) [1]: 672 nm
- ΦF (Aggr.) [1]: 4.2%
- ΦF (Soln.) [1]: 0.5%
- ΦF (Solid.) [1]: 1.1%
- λem (Aggr.) [1]: 664 nm
- Iaggr,max/Isoln [1]: 26.4
- stokes shifts [1]: ca. 200 nm
- λem (Solid.) [1]: 683 nm
- ε [1]: 31000 M⁻¹ cm⁻¹
- ROS generation efficacy (decrease of ABDA absorption at 378 nm) [2]: much higher than Rose Bangel
- subcellular organelle visualized after incubation [3]: lyso some
- Pearson's coefficient (co-localization efficiency) [3]: 0.90
- organelle towards which strong affinity is exhibited [4]: lysosome
- Pearson's coefficient (co-localization) [4]: 0.90
- cell viability upon light irradiation [5]: 15%
